# According to ChEMBL document CHEMBL1139221, “2-(4-Chlorobenzyl)-3-hydroxy-7,8,9,10-tetrahydrobenzo[H]quinoline-4-carboxylic acid (PSI-697): identification of a clinical candidate from the quinoline salicylic acid series of P-selectin antagonists” (J Med Chem, 2007):
# Activity calls are given as the source filed them. No cut-off for these calls is given here.
# Target: T1, P-selectin (Homo sapiens) (UniProt P16109)
# T1 sequence (whole entry): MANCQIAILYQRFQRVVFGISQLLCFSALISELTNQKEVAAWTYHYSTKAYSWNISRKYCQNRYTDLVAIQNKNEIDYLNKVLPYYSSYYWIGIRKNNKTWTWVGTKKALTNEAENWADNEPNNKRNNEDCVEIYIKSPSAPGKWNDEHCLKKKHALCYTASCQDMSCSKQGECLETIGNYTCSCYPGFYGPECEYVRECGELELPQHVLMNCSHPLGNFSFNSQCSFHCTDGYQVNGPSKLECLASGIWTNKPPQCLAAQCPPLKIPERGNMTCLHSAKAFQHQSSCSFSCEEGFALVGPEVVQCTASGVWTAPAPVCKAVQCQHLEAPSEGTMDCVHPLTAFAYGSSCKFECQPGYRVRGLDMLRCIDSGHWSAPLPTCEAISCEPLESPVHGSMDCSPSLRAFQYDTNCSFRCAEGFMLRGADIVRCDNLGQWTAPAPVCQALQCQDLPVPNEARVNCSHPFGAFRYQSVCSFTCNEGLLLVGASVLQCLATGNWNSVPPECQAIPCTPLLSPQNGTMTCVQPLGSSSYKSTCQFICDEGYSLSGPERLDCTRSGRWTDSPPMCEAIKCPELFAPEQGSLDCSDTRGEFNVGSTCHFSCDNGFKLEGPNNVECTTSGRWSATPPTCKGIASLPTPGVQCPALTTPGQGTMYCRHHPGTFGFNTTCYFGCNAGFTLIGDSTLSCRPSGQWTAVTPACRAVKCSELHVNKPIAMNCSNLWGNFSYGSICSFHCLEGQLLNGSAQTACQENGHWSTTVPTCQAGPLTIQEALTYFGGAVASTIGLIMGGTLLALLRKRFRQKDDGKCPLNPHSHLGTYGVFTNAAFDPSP
# Test: Inhibition of P-Selectin by Biacore assay at 500 uM
row,SMILES,inhibition
1,CC(=O)n1cc(Cc2nc3c4c(ccc3c(C(=O)O)c2O)CCCC4)c2ccccc21,34%
2,Cc1ccc2c(C(=O)O)c(O)c(Cc3ccc(Cl)cc3)nc2c1,12%
3,O=C(O)c1c(O)c(Cc2ccc(Cl)cc2)nc2ccc(-c3ccccc3)cc12,38%
4,Cc1cccc2c(C(=O)O)c(O)c(Cc3c[nH]c4ccccc34)nc12,11%
5,O=C(O)c1c(O)c(Cc2c[nH]c3ccccc23)nc2c(OC(F)(F)F)cccc12,18%
6,O=C(O)c1c(O)c(Cc2ccc(Cl)c(Cl)c2)nc2c3c(ccc12)CCCC3,36%
7,CCc1cccc2c(C(=O)O)c(O)c(Cc3c[nH]c4ccccc34)nc12,19%
8,Cc1c(Cc2nc3c4c(ccc3c(C(=O)O)c2O)CCCC4)sc2ccccc12,22%
9,CCc1ccc2c(C(=O)O)c(O)c(Cc3ccc(Cl)cc3)nc2c1,19%
10,CC(C)(C)c1cccc2c(C(=O)O)c(O)c(Cc3ccc(Cl)cc3)nc12,12%
11,O=C(O)c1c(O)c(Cc2c[nH]c3ccccc23)nc2c(C(F)(F)F)cccc12,15%
12,O=C(O)c1c(O)c(Cc2ccc(Cl)cc2)nc2c(F)cccc12,12%
13,O=C(O)c1ccc(Cc2nc3c4c(ccc3c(C(=O)O)c2O)CCCC4)cc1,10%
14,O=C(O)c1c(O)c(Cc2c[nH]c3ccccc23)nc2c(Br)cccc12,15%
15,O=C(O)c1c(O)c(Cc2ccc(Cl)cc2)nc2c(C(=O)O)cccc12,8%

# Target: T2, P-selectin (Homo sapiens, UniProt P16109)
# T2 sequence (P16109 whole entry): T1 sequence (whole entry)
# Test: (§1) Inhibition of P-Selectin by Biacore assay
row,SMILES,IC50
1,O=C(O)c1c(O)c(Cc2ccccc2)nc2c3c(ccc12)CCCC3,413 µM
2,O=C(O)c1c(O)c(-c2ccccc2)nc2ccccc12 [OXYCINCHOPHEN],6500 µM
3,O=C(O)c1c(O)c(Cc2ccc(Cl)cc2)nc2cc(Cl)ccc12,900 µM
4,N#Cc1ccc(Cc2nc3c4c(ccc3c(C(=O)O)c2O)CCCC4)cc1,500 µM
5,CC(C)COC(=O)Oc1c(Cc2ccc(Cl)cc2)nc2c3c(ccc2c1C(=O)O)CCCC3,250 µM
6,O=C(O)c1c(O)c(Cc2coc3ccccc23)nc2c3c(ccc12)CCCC3,225 µM
7,Cc1ccc(-c2nc3c4c(ccc3c(C(=O)O)c2O)CCCC4)s1,200 µM
8,O=C(O)c1c(O)c(Cc2c[nH]c3ccccc23)nc2c(-c3ccsc3)cccc12,380 µM
9,O=C(Oc1c(Cc2ccc(Cl)cc2)nc2c3c(ccc2c1C(=O)O)CCCC3)c1ccccc1,190 µM
10,O=C(O)c1c(OCc2ccccc2)c(Cc2ccc(Cl)cc2)nc2c3c(ccc12)CCCC3,390 µM
11,O=C(Oc1c(Cc2ccc(Cl)cc2)nc2c3c(ccc2c1C(=O)O)CCCC3)c1cccs1,175 µM
12,O=C(O)c1c(O)c(Cc2ccc(Cl)cc2)nc2c3c(ccc12)CCC3,580 µM
13,O=C(O)c1c(O)c(CCc2ccccc2)nc2c3c(ccc12)CCCC3,450 µM
14,O=C(O)c1c(O)c(Cc2ccc(Cl)cc2)nc2c(C(F)(F)F)cccc12,325 µM
15,NC(=O)c1ccc(Cc2nc3c4c(ccc3c(C(=O)O)c2O)CCCC4)cc1,1250 µM
16,O=C(O)c1c(O)c(Cc2cccs2)nc2c3c(ccc12)CCCC3,413 µM
17,O=C(O)c1c(O)c(Cc2ccc(Cl)cc2)nc2c(-c3ccccc3)cccc12,200 µM
18,Cc1[nH]c2ccccc2c1Cc1nc2c3c(ccc2c(C(=O)O)c1O)CCCC3,270 µM
19,O=C(O)c1c(O)c(Nc2ccc(Cl)cc2)nc2c(C(F)(F)F)cccc12,125 µM
20,CCc1cccc2c(C(=O)O)c(O)c(Cc3ccc(Cl)cc3)nc12,250 µM
21,O=C(O)c1c(O)c(Cc2ccc(Cl)cc2)nc2c(Br)cccc12,425 µM
22,Cc1ccc2[nH]cc(Cc3nc4c5c(ccc4c(C(=O)O)c3O)CCCC5)c2c1,200 µM

row,SMILES,IC50
1,O=C(O)c1c(OC(=O)C2CCCCC2)c(Cc2ccc(Cl)cc2)nc2c3c(ccc12)CCCC3,175 µM
2,O=C(O)c1c(O)c(Cc2csc3ccccc23)nc2c3c(ccc12)CCCC3,100 µM
3,COC(=O)Oc1c(Cc2ccc(Cl)cc2)nc2c3c(ccc2c1C(=O)O)CCCC3,400 µM
4,CC(C)S(=O)(=O)N1CCc2ccc3c(C(=O)O)c(O)c(Cc4ccc(Cl)cc4)nc3c2C1,500 µM
5,O=C(O)c1c(O)c(Cc2ccc(Cl)cc2)nc2ccc(Br)cc12,650 µM
6,O=C(O)c1c(O)c(Cc2ccc(Cl)cc2)nc2c(-c3ccoc3)cccc12,150 µM
7,O=C(O)c1c(O)c(Cc2ccc(Cl)cc2)nc2c(OC(F)(F)F)cccc12,550 µM
8,O=C(O)c1c(O)c(Cc2ccc(Cl)cc2)nc2c(-c3ccsc3)cccc12,225 µM
9,O=C(O)c1c(O)c(-c2ccccc2)nc2c3c(ccc12)CCCC3,550 µM
10,Cc1cccc2c(C(=O)O)c(O)c(Cc3ccc(Cl)cc3)nc12,1000 µM
11,CC(C)c1cccc2c(C(=O)O)c(O)c(Cc3c[nH]c4ccccc34)nc12,415 µM
12,O=C(O)c1c(O)c(Cc2ccsc2)nc2c3c(ccc12)CCCC3,475 µM
13,CS(=O)(=O)N1CCc2ccc3c(C(=O)O)c(O)c(Cc4ccc(Cl)cc4)nc3c2C1,625 µM
14,COc1ccc2[nH]cc(Cc3nc4c5c(ccc4c(C(=O)O)c3O)CCCC5)c2c1,400 µM
15,CC(=O)Oc1c(Cc2ccc(Cl)cc2)nc2c3c(ccc2c1C(=O)O)CCCC3,545 µM
16,CC(C)c1cccc2c(C(=O)O)c(O)c(Cc3ccc(Cl)cc3)nc12,225 µM
17,O=C(O)c1c(O)c(Cc2ccc(Cl)cc2)nc2c(Cl)cccc12,715 µM
18,O=C(O)c1c(O)c(Cc2ccc(OC(F)(F)F)cc2)nc2c3c(ccc12)CCCC3,610 µM
19,O=C(O)c1c(O)c(Cc2c[nH]c3ccc(Br)cc23)nc2c3c(ccc12)CCCC3,175 µM
20,Cc1ccc2c(C(=O)O)c(O)c(-c3ccccc3)nc2c1C,1500 µM
21,CCC(C)c1cccc2c(C(=O)O)c(O)c(Cc3ccc(Cl)cc3)nc12 (centres undefined),300 µM
22,O=C(O)c1c(O)c(-c2c[nH]c3ccccc23)nc2c3c(ccc12)CCCC3,225 µM

# Target: T1, P-selectin (Homo sapiens)
# Test: as §1
row,SMILES,Activity
1,O=C(O)c1c(O)c(Cc2ccc(Cl)cc2)nc2ccccc12,inactive
2,O=C(OCc1ccccc1)c1c(OCc2ccccc2)c(Cc2ccc(Cl)cc2)nc2c3c(ccc12)CCCC3,inactive
3,O=C(O)c1c(O)c(Cc2c[nH]c3ccccc23)nc2c(F)cccc12,inactive
4,CC(=O)N1CCc2ccc3c(C(=O)O)c(O)c(Cc4ccc(Cl)cc4)nc3c2C1,inactive
5,O=C(O)c1c(O)c(Cc2c[nH]c3ccccc23)nc2c(Cl)cccc12,inactive
6,O=C(O)c1c(O)c(Cc2cn(C(=O)Cc3ccccc3)c3ccccc23)nc2c3c(ccc12)CCCC3,inactive
7,Cc1ccc2c(C(=O)O)c(O)c(Cc3c[nH]c4ccccc34)nc2c1,inactive
8,O=C(O)c1c(O)c(Cc2c[nH]c3ccccc23)nc2ccc(OC(F)(F)F)cc12,inactive
9,CCOC(=O)N1CCc2ccc3c(C(=O)O)c(O)c(Cc4ccc(Cl)cc4)nc3c2C1,inactive
10,O=C(O)c1c(O)c(Cc2c[nH]c3ccccc23)nc2ccccc12,inactive
11,CCc1ccc2c(C(=O)O)c(O)c(Cc3c[nH]c4ccccc34)nc2c1,inactive
12,COc1ccc(-c2ccccc2)c2nc(Cc3ccc(Cl)cc3)c(O)c(C(=O)O)c12,inactive
13,CCN1CCc2ccc3c(C(=O)O)c(O)c(Cc4ccc(Cl)cc4)nc3c2C1,inactive
14,O=C(O)c1c(Cc2ccc(Cl)cc2)nc2c3c(ccc2c1O)CCCC3,inactive
15,CC(C)N1CCc2ccc3c(C(=O)O)c(O)c(Cc4ccc(Cl)cc4)nc3c2C1,inactive
16,O=C(O)c1c(O)c(Cc2ccc(Cl)cc2)nc2c3c(ccc12)CCN(Cc1ccccc1)C3,inactive
17,O=C(O)c1c(O)c(Cc2c[nH]c3ccccc23)nc2cc(Br)ccc12,inactive
18,O=C(O)c1c(O)c(Cc2c[nH]c3ccccc23)nc2ccc(F)cc12,inactive
19,CC(C)OC(=O)n1cc(Cc2nc3c4c(ccc3c(C(=O)O)c2O)CCCC4)c2ccccc21,inactive
20,O=C(O)c1c(O)c(Cc2c[nH]c3ccccc23)nc2ccc(Br)cc12,inactive
21,O=C(O)c1c(O)c(Cc2csc3ccc(Cl)cc23)nc2c3c(ccc12)CCCC3,inactive
22,NC(=O)N1CCc2ccc3c(C(=O)O)c(O)c(Cc4ccc(Cl)cc4)nc3c2C1,inactive
23,Cc1ccc2nc(Cc3c[nH]c4ccccc34)c(O)c(C(=O)O)c2c1,inactive
24,O=C(O)c1c(O)c(Cc2ccc(Cl)cc2)nc2c3c(ccc12)CCNC3,inactive
25,O=C(O)c1c(O)c(Cc2ccc(Cl)cc2)nc2c3c(ccc12)CCN(C(=O)c1ccccc1)C3,inactive

# Target: T1, P-selectin (Homo sapiens)
# Test: Inhibition of P-Selectin by Biacore assay at 250 uM
row,SMILES,inhibition
1,COc1c(Cc2ccc(Cl)cc2)nc2c3c(ccc2c1C(=O)O)CCCC3,20%
2,Nc1c(Cc2ccc(Cl)cc2)nc2c3c(ccc2c1C(=O)O)CCCC3,15%
3,CC(C)C(=O)Oc1c(Cc2ccc(Cl)cc2)nc2c3c(ccc2c1C(=O)O)CCCC3,13%
4,CC(=O)Nc1c(Cc2ccc(Cl)cc2)nc2c3c(ccc2c1C(=O)O)CCCC3,10%
5,O=C(Nc1c(Cc2ccc(Cl)cc2)nc2c3c(ccc2c1C(=O)O)CCCC3)c1ccccc1,19%
